Reference: patent publication US7205308B2, “Trisubstituted 7-aminopyrazolopyrimidines as cyclin dependent kinase inhibitors” (Schering Corporation, priority 2002, dated 2007)
Values joined by “and” are separate entries in the source; they are usually repeats but may differ in a detail not shown here. Equal entries are not always repeated.

Tests used:
Cyclin E/CDK2 = molecular target: T1, Cyclin E/CDK2 (Homo sapiens, UniProt P24941); test: Cyclin E/CDK2 in vitro kinase assay (SPA, 33P-ATP, biotinylated Histone H1 peptide); type: biochemical; conditions: recombinant cyclin E/CDK2 from SF9 cells; 8 point serial dilutions in duplicate; 1 hour at room temperature
T1 construct: The expressed protein was approximately 34 kDa in size; made in house; host or cells: SF9 insect cells (baculovirus co-infection)

| melting point | SMILES | IC50 (Cyclin E/CDK2) |
| --- | --- | --- |
| 210 to 211 °C | CS(=O)(=O)c1ccc(Nc2cc(-c3ccccc3)nc3c(C4CC4)cnn23)cc1 |  |
| 213 to 216 °C | CC(C)c1cnn2c(Nc3ccc(S(C)(=O)=O)cc3)cc(-c3ccccc3)nc12 |  |
| 249 to 253 °C | CS(=O)(=O)c1ccc(Nc2cc(-c3ccc(Cl)cc3)nc3c(Br)cnn23)cc1 |  |
| 192 to 194 °C | CCc1cnn2c(Nc3ccc(S(C)(=O)=O)cc3)cc(-c3ccccc3)nc12 |  |
| 202 to 204 °C | CS(=O)(=O)c1ccc(Nc2cc(-c3ccccc3)nc3c(Br)cnn23)cc1 |  |
| 206 to 208 °C | O=S(=O)(O)c1cccc(Nc2cc(-c3ccccc3)nc3c(Br)cnn23)c1 |  |
| > 250 °C | O=S(=O)(O)c1ccc(Nc2cc(-c3ccccc3F)nc3c(Br)cnn23)cc1 |  |
| > 250 °C | CCc1cnn2c(Nc3ccc(S(=O)(=O)O)cc3)cc(-c3ccccc3)nc12 |  |
| 237 to 239 °C | CN(C)S(=O)(=O)c1ccc(Nc2cc(-c3ccccc3)nc3c(Br)cnn23)cc1 |  |
| 195 to 197 °C | CC(C)(C)OC(=O)NCCNS(=O)(=O)c1ccc(Nc2cc(-c3ccccc3)nc3c(Br)cnn23)cc1 |  |
| 216 to 218 °C | O=S(=O)(NCc1ccccc1)c1ccc(Nc2cc(-c3ccccc3)nc3c(Br)cnn23)cc1 |  |
| 165 to 168 °C | O=S(=O)(NCCCO)c1ccc(Nc2cc(-c3ccccc3)nc3c(Br)cnn23)cc1 |  |
| 147 to 150 °C | O=S(=O)(Nc1ccccc1)c1ccc(Nc2cc(-c3ccccc3)nc3c(Br)cnn23)cc1 |  |
| 127 to 129 °C | CC(C)(C)OC(=O)N1CCC(NS(=O)(=O)c2ccc(Nc3cc(-c4ccccc4)nc4c(Br)cnn34)cc2)CC1 |  |
| > 200 °C (dec.) | O=S(=O)(NC1CCCC1)c1ccc(Nc2cc(-c3ccccc3)nc3c(Br)cnn23)cc1 |  |
| > 200 °C (dec.) | CC(CO)NS(=O)(=O)c1ccc(Nc2cc(-c3ccccc3)nc3c(Br)cnn23)cc1 (stereo not shown) |  |
| 101 to 103 °C | O=S(=O)(NCc1ccccn1)c1ccc(Nc2cc(-c3ccccc3)nc3c(Br)cnn23)cc1 |  |
| 110 to 114 °C | O=S(=O)(NCc1cccnc1)c1ccc(Nc2cc(-c3ccccc3)nc3c(Br)cnn23)cc1 |  |
| 206 to 208 °C | O=S(=O)(O)CCNS(=O)(=O)c1ccc(Nc2cc(-c3ccccc3)nc3c(Br)cnn23)cc1 |  |
| 117 to 118 °C | CS(=O)(=O)c1ccc(Nc2cc(-c3ccccc3F)nc3c(Br)cnn23)cc1 |  |
| 98 to 100 °C | CC(CO)(CO)NS(=O)(=O)c1ccc(Nc2cc(-c3ccccc3)nc3c(Br)cnn23)cc1 |  |
| 182 to 184 °C | COC(=O)CNS(=O)(=O)c1ccc(Nc2cc(-c3ccccc3)nc3c(Br)cnn23)cc1 |  |
| 228 to 230 °C | CN1CCN(S(=O)(=O)c2ccc(Nc3cc(-c4ccccc4)nc4c(Br)cnn34)cc2)CC1 |  |
| 108 to 110 °C | O=S(=O)(N[C@@H](CO)Cc1ccccc1)c1ccc(Nc2cc(-c3ccccc3)nc3c(Br)cnn23)cc1 |  |
| 102 to 105 °C | O=S(=O)(N[C@H](CO)Cc1ccccc1)c1ccc(Nc2cc(-c3ccccc3)nc3c(Br)cnn23)cc1 |  |
| 87 to 90 °C | O=S(=O)(NCCO)c1cccc(Nc2cc(-c3ccccc3)nc3c(Br)cnn23)c1 |  |
| 115 to 120 °C | CC(O)CNS(=O)(=O)c1cccc(Nc2cc(-c3ccccc3)nc3c(Br)cnn23)c1 (stereo not shown) |  |
| 99 to 101 °C | CCc1cnn2c(Nc3ccc(S(=O)(=O)NCCN(C)C)cc3)cc(-c3ccccc3)nc12 |  |

Further lines, the compound ahead of its results:

| SMILES | melting point | IC50 (Cyclin E/CDK2) |
| --- | --- | --- |
| CS(=O)(=O)c1ccc(Nc2cc(-c3ccccc3F)nc3c(Cl)cnn23)cc1 | 232 to 235 °C |  |
| CS(=O)(=O)c1ccc(Nc2cc(-c3cccc(C(F)(F)F)c3)nc3c(Br)cnn23)cc1 | 210 to 212 °C |  |
| CC(C)c1cc(Nc2ccc(S(C)(=O)=O)cc2)n2ncc(Br)c2n1 | 214 to 215 °C |  |
| CC(C)c1cc(Nc2ccccc2)n2ncc(Br)c2n1 | 166 to 168 °C |  |
| CC(C)(C)c1cc(Nc2ccccc2)n2ncc(Br)c2n1 | 144 °C |  |
| CS(=O)(=O)c1ccc(Nc2cc(-c3ccccc3Cl)nc3c(Br)cnn23)cc1 [Example 1] |  | 400 nM and 1400 nM |
| Clc1ccccc1-c1cc(Nc2ccccc2)n2ncc(Br)c2n1 [Example 2] |  | 510 nM |
| Fc1ccccc1-c1cc(Nc2ccccc2)n2ncc(Cl)c2n1 [Example 3] | 112 to 116 °C | 42 nM |
| O=S(=O)(O)c1ccc(Nc2cc(-c3ccccc3)nc3c(Br)cnn23)cc1 [Example 22] | > 250 °C | 82 nM |
| CCNS(=O)(=O)c1ccc(Nc2cc(-c3ccccc3)nc3c(Br)cnn23)cc1 [Example 28] | 101 to 104 °C | 80 nM |
| O=S(=O)(NCCO)c1ccc(Nc2cc(-c3ccccc3)nc3c(Br)cnn23)cc1 [Example 30] | 175 to 177 °C | 29 nM |
| NS(=O)(=O)c1ccc(Nc2cc(-c3ccccc3)nc3c(Br)cnn23)cc1 [Example 31] | 206 to 208 °C | 45 nM |
| CNS(=O)(=O)c1ccc(Nc2cc(-c3ccccc3)nc3c(Br)cnn23)cc1 [Example 32] | 231 to 233 °C | 57 nM |
| O=S(=O)(Nc1ccncc1)c1ccc(Nc2cc(-c3ccccc3)nc3c(Br)cnn23)cc1 [Example 38] | 192 to 195 °C | 40 nM |
| COCCNS(=O)(=O)c1ccc(Nc2cc(-c3ccccc3)nc3c(Br)cnn23)cc1 [Example 42] | 172 to 173 °C | 70 nM |
| CN(C)CCNS(=O)(=O)c1ccc(Nc2cc(-c3ccccc3)nc3c(Br)cnn23)cc1 [Example 43] | 165 to 167 °C | 34 nM |
| O=S(=O)(c1ccc(Nc2cc(-c3ccccc3)nc3c(Br)cnn23)cc1)N(CCO)CCO [Example 47] | 90 to 92 °C | 34 nM |
| CN(C)CC(C)(C)CNS(=O)(=O)c1ccc(Nc2cc(-c3ccccc3)nc3c(Br)cnn23)cc1 [Example 48] | 163 to 165 °C | 25 nM |
| O=S(=O)(NC(CO)CO)c1ccc(Nc2cc(-c3ccccc3)nc3c(Br)cnn23)cc1 [Example 50] | 122 to 124 °C | 30 nM |
| CN(C)CCCNS(=O)(=O)c1ccc(Nc2cc(-c3ccccc3)nc3c(Br)cnn23)cc1 [Example 53] | 78 to 80 °C | 11 nM |
